# Laboratory results taken from publication PMC11721293 (JCI Insight, 2025).
# “And” between values parts separate entries of the source, which are not always exact repeats. Equal values may be shown once. Read-outs that look alike come from different tables or passages of the source.
# Assays:
# SARS-CoV-2-nLUC = experiment: microbe, parasite or virus in culture; assay type: cell-based; settings: for viral inhibition (EC50 curve data): Huh7A2T2, log[Lonafarnib]; for Replication: LNF
# SARS-CoV-2 = assay type: cell-based; settings: for percentage genome copy number relative to DMSO: 48 h, replicates
# SARS-CoV-2 Wuhan = assay type: cell-based; settings: VeroE6, 10 μM LNF, 24 h, DMSO = 100%
# SARS-CoV-2 replicon = experiment: microbe, parasite or virus in culture; assay type: cell-based
# SARS-CoV-2 RDPs = experiment: microbe, parasite or virus in culture; assay type: cell-based; settings: for EC50: Huh7.5 ACE-TMPRSS2, Gluc RDPs, 24 h
# [1] = system: SARS-CoV-2 strain USA-WA1/2020; assay type: in vivo, mouse
# SARS-CoV-2-WA = assay type: in vivo, mouse; settings: 50 MPK oral gavage twice daily; day 2
# Calu3 cells = settings: Fig 1F
# in vitro [2] = settings: human
# in vitro [3] = settings: human; remark: listed apart in the source
# lysosomal compartment = experiment: LysoTracker staining of VeroTA6 cells
# Method: (A) VeroTA6 cells were seeded
# post treatment, the cells were stained with lysotracker (Thermofisher, L7528) and visualized under
# the microscope (left). The fluorescence intensity was captured and quantified for each treatment
# B), the significance was calculated using one-way ANOVA with Dunnett’s test with multiple
# comparison to the DMSO control, and the P values are depicted as ns for P>0.05, ** for P <0.01,
# [4] = Pharmacokinetics after PO administration; settings: K18-hACE2(Tg) C57Bl/6J, mouse, 25 mg/kg; for Kp / half-life: in vivo, PO; for Kp: AUC ratio (Tissue/PL)
# [5] = Severe acute respiratory syndrome coronavirus 2, Huh7.5, 24 h
smiles,measurement,setting,value
"NC(=O)N1CCC(CC(=O)N2CCC([C@H]3c4ncc(Br)cc4CCc4cc(Cl)cc(Br)c43)CC2)CC1 [LNF, lonafarnib]",selectivity index (SI = CC50/EC50),SARS-CoV-2-nLUC,greater than 10
same,viral inhibition (EC50 curve data),"SARS-CoV-2-nLUC; μM 0.39794, 24 h",31.0378 and 31.6733 and 41.1788 and 40.0144
same,viral inhibition (EC50 curve data),"SARS-CoV-2-nLUC; μM 1, 24 h",85.1292 and 83.5424 and 87.1345 and 86.5675
same,Replication,SARS-CoV-2-nLUC; Log[LNF} mM 0.09691,60.948 and 56.887 and 64.8083
same,Replication,SARS-CoV-2-nLUC; Log[LNF} mM 0.39794,44.056 and 34.731 and 47.009
same,Replication,SARS-CoV-2-nLUC; Log[LNF} mM 1,12.4102 and 12.97 and 12.6676
same,Replication,SARS-CoV-2-nLUC; Log[LNF} mM -0.522879,64.2793 and 76.4681 and 101.013
same,EC50,"SARS-CoV-2-nLUC; Severe acute respiratory syndrome coronavirus 2, 24 h, Huh7.5A2T2, 24 h, Fig 1G, read-out: EC50",3.46 µM
same,EC50,"SARS-CoV-2-nLUC; Severe acute respiratory syndrome coronavirus 2, 24 h, VeroE6T2, 24 h, Fig 1G, read-out: EC50",2.24 µM
same,EC50,"SARS-CoV-2-nLUC; Severe acute respiratory syndrome coronavirus 2, Calu-3, 24 h, Calu3, 24 h, Fig 1G, read-out: EC50",3.11 µM
same,EC50,"SARS-CoV-2-nLUC; Severe acute respiratory syndrome coronavirus 2, Vero C1008, 24 h, VeroE6, 24 h, Fig 1G, Fig 5B, read-out: EC50",2.03 µM
same,EC50,"SARS-CoV-2-nLUC; Severe acute respiratory syndrome coronavirus 2, VeroE6, Huh7.5A2T2, VeroE6T2, Calu3, read-out: EC50 values, range over cell lines",2.03 to 3.46 µM
same,EC50,"SARS-CoV-2-nLUC; VeroE6, 24 h, Fig 1G, Fig 5B, read-out: EC50",2 µM
same,reduction of viral genome copy number in infected cells,"SARS-CoV-2; 10 μM, VeroE6 and Calu3",more than 90%
same,percentage genome copy number relative to DMSO,"SARS-CoV-2; Fig 1D, 5 mM (printed)",15.7327% and 8.267% and 4.447%
same,percentage genome copy number relative to DMSO,"SARS-CoV-2; Fig 1D, 10 mM (printed)",0.3388% and 0.169% and 0.1887%
same,percentage genome copy number relative to DMSO,"SARS-CoV-2; Fig 1E, 5 mM (printed)",1.7284% and 12.0506% and 10.6523% and 4.939%
same,percentage genome copy number relative to DMSO,"SARS-CoV-2; Fig 1E, 10 mM (printed)",0.1445% and 0.1282% and 0.2571% and 0.1291%
same,% Genome,SARS-CoV-2 Wuhan,8.96% and 1.08% and 1.45%
same,EC50,SARS-CoV-2 replicon,7.8 µM
same,Inhibition,SARS-CoV-2 replicon,99.8867
same,Inhibition,SARS-CoV-2 replicon; Log[LNF} mM 1,58.6507 and 68.927 and 62.2766 and 74.1393
same,EC50,SARS-CoV-2 replicon; [5],7.88 µM
same,EC50,SARS-CoV-2 RDPs,10.4 µM
same,Inhibition,SARS-CoV-2 RDPs; Log[LNF} mM 1,53.2589 and 40.1773 and 43.3748 and 43.6359
same,EC50,SARS-CoV-2 RDPs; [5],10.5 µM
same,Clinical Score,"[1]; Day 5, individual animals",1 (3×) and 0 (7×)
same,composite clinical score,"[1]; LNF 40 MPK IP, RDV 25 MPK SC, twice daily",much improved disease parameters
same,lung viral titer,SARS-CoV-2-WA,significantly lower viral titers in the lung
same,CC50,Calu3 cells,> 30 µM
same,CC50,in vitro [2],> 30 µM
same,CC50,in vitro [3],> 30 µM
same,LysoTracker fluorescence intensity,"lysosomal compartment; VeroTA6, 10 μM, 30 min",significantly higher fluorescence intensity
same,Lysotracker,"lysosomal compartment; sheet S5A, individual measurements",1000.41 and 1078.15 and 1357.74 and 1025.55 and 1236.53 and 1375.69 and 1111.13 and 939.183 and 1788.26 and 2301.51 and 898.567 and 730.339 and 642.99 and 1893.93 and 696.429 and 1937.99 and 1199.36 and 1178.39 and 1146.54 and 1719.14 and 1470.88 and 572.253 and 1006.33
same,AUC(0-inf),[4]; brain,3 µM·h
same,Cmax,[4]; brain,0.21 µM
same,Tmax,[4]; brain,7 h
same,AUC(0-inf),[4]; heart,97 µM·h
same,Cmax,[4]; heart,8.6 µM
same,Tmax,[4]; heart,1 h
same,Kp,[4]; Brain,0.056
same,Kp,[4]; Heart,1.8
same,Kp,[4]; Kidney,2.1
same,Kp,[4]; Liver,5.2
same,Kp,[4]; Lung,2.4
same,half-life,"[4]; t1/2, Brain",2.4 h
same,half-life,"[4]; t1/2, Heart",2.2 h
same,half-life,"[4]; t1/2, Kidney",2.4 h
same,half-life,"[4]; t1/2, Liver",1.7 h
same,half-life,"[4]; t1/2, Lung",2.1 h
same,half-life,"[4]; t1/2, Plasma",1.4 h
same,AUC(0-inf),[4]; kidney,113 µM·h
same,Cmax,[4]; kidney,9.3 µM
same,Tmax,[4]; kidney,1 h
same,AUC(0-inf),[4]; liver,279 µM·h
same,Cmax,[4]; liver,20 µM
same,Tmax,[4]; liver,7 h
same,AUC(0-inf),[4]; lung,129 µM·h
same,Cmax,[4]; lung,33 µM
same,Tmax,[4]; lung,0.25 h
same,AUC(0-inf),[4]; plasma,53 µM·h
same,Cmax,[4]; plasma,3.8 µM
same,Tmax,[4]; plasma,7 h
